For assay [1], the target named is FAK (Homo sapiens, UniProt Q05397). Put plainly: Kinase profiler screening, FAK. The assay is classed as biochemical. To be noted: 1 μM compound, 10 μM ATP. Here is the method:
(§1) Kinase Profiler Screening: Kinase specificity screening was performed with Invitrogen's SelectScreen® Kinase Profiling Services http://www.invitrogen.com/site/us/en/home/Products-and-Services/Services/Discoverv-Research/SelectScreen-Profiling-Service/SelectScreen-Kinase-Profiling-Service.html. The screening was performed with 1 μM compound, INT2-31, 10 μM ATP, and kinase substrates against ten recombinant kinases according to Z′-LYTET™ Kinase Assay. For PI3 kinase activity, 100 μM ATP, and kinase substrate were utilized with the Invitrogen Adapta® Universal Kinase Assay protocol. Tumor Growth in Nude Mice in vivo: Six week old athymic, female nude mice were purchased from Harlan Laboratory. The mice were maintained in the animal facility, and all experiments were performed in compliance with NIH animal-use guidelines and under an IACUC approved protocol. Melanoma cells were injected, 5×10^6 cells, subcutaneously. When the tumor size reached 100 mm^3, the INT2-31 was introduced by intraperitoneal injection at a dose of 15 mg/kg daily for 21 days. Tumor diameters were measured with calipers, and tumor volume in mm^3 was calculated using the formula [(width)^2×length]/2. At the end of experiment, tumor weight and volume were determined.

Assay [2] deals with IGF-1R (Homo sapiens, UniProt P08069). The assay can be described thus: Kinase profiler screening, IGF-1R. The assay is classed as biochemical. To be noted: 1 μM compound, 10 μM ATP. Here is the method:
as §1

In assay [3] the test system is FAK and IGF-1R pathway effectors. The assay can be described thus: Western blot of signaling in melanoma cell lines. Type of assay: cell-based, human. The source says:
Computational Docking The crystal structures of the N-terminal domain of FAK (PDB code 2AL6) (22) and the kinase domain of IGF-1R(PDB 1P40A) (23) were utilized for in silico molecular modeling of their interaction as previously described. The three-dimensional coordinates of compound NSC344553 (INT2-31), obtained from the database of the National Cancer Institute, Developmental Therapeutics Program (NCI/DTP), were docked onto the predicted interface of the amino-terminus of FAK (amino acids 127-243) with the intracytoplasmic portion of IGF-1R (21). All docking calculations were performed with the University of California-San Francisco DOCK 5.1 program, using a clique-matching algorithm to orient small molecule structures with sets of spheres that describe the target sites on FAK (37). 100 orientations were created for NSC344553 in the target site and were scored using the computer program grid-based scoring function. Docking calculations were performed on the University of Florida High Performance Computing supercomputing cluster (http:hpc.ufl.edu). The intermolecular energies for all configurations of NSC 344553 in binding to FAK-NT2 were calculated as the sum of electrostatic and van der Waals energies. These energy terms were evaluated as correlation functions, which were computed efficiently with Fast Fourier Transforms. Production of GST-fusion proteins: The FAK-GST plasmid constructs (pGEX vector) were kindly provided by Dr. Elena Kurenova (Roswell Park Cancer Institute, Buffalo, N.Y.). His-tagged IGF-1R protein was purchased from Blue Sky Biotechnology (Worchester, Mass.). The GST-fusion proteins (FAK fragments) were expressed in BL21 (DE3) Escherichia coli bacteria by incubation with 0.2 mM isopropyl b-D-galactopyranoside (IPTG) for 6 h at 37° C. The bacteria were lysed by sonication, and the fusion proteins were purified with glutathione-Sepharose 4B beads (GE Healthcare, NJ). Pull-down assay: For the pull-down binding assay, His-tagged IGF-1R fragment protein (200 ng) were precleared with GST immobilized on glutathione-Sepharose 4B beads. The precleared His-tagged protein was incubated with 0.2 μg of GST-FAK fusion protein immobilized on the glutathione-Sepharose 4B beads for 1 h at 4° C. and then washed 3× with PBS. Equal amounts of GST-fusion proteins were used for each binding assay. Bound proteins were boiled in 6× Laemmli buffer and analyzed by SDS-PAGE and Western blotting. Immunoprecipitation and western blotting: Cells were washed twice with ice cold 1×PBS and lysed in buffer containing 20 mM Tris, pH 7.4, 150 mM NaCl, 1% NP-40, 5 mM EDTA acid, protease inhibitors (Complete™ Protease Inhibitor, Roche, N.J.) and phosphatase inhibitors (Calbiochem, Calif.). For immunoprecipitation, 100-200 μg of total cell extract was used for each sample. The extracts were incubated with 1 μg of antibody overnight at 4° C. Next, 25 μl of protein A/G-agarose beads were added and the samples were incubated for 2 h at 4° C. The precipitates were washed 4× with lysis buffer and samples containing 30 μg of protein were resolved by SDS-PAGE. The intensity of the bands in the western blots was measured with scion image analysis software program. Short hairpin RNA Transfection of cells: Control shRNA (mock) and FAK shRNAs was obtained from Open Biosystems. The sequences of short hairpin RNAs against human FAK were: (5′-[…] TCCAATCGTTTTG-3′; 5′-[…]-3′) and control shRNA (mock) (5′-[…]-3′). For the transfection of cells (2×10^5 cells/well) were seeded into 6-well plates in 2 ml medium one day prior to transfection. According to the protocols of the manufacturer, cells were transfected using Lipofectamine 2000 reagent (Invitrogen, CA).
Western blotting: boiled samples containing 30 μg of protein were resolved by sodium dodecyl sulfate-polyacrylamide gel electrophoresis followed by transferring to polyvinylidene difluoride membrane (Bio-Rad, Hercules, Calif.). […]
(In general: Immunoblotting shows a protein as a band on a membrane.)

Each structure is given as a SMILES string.

Sequence of FAK (Q05397 whole entry): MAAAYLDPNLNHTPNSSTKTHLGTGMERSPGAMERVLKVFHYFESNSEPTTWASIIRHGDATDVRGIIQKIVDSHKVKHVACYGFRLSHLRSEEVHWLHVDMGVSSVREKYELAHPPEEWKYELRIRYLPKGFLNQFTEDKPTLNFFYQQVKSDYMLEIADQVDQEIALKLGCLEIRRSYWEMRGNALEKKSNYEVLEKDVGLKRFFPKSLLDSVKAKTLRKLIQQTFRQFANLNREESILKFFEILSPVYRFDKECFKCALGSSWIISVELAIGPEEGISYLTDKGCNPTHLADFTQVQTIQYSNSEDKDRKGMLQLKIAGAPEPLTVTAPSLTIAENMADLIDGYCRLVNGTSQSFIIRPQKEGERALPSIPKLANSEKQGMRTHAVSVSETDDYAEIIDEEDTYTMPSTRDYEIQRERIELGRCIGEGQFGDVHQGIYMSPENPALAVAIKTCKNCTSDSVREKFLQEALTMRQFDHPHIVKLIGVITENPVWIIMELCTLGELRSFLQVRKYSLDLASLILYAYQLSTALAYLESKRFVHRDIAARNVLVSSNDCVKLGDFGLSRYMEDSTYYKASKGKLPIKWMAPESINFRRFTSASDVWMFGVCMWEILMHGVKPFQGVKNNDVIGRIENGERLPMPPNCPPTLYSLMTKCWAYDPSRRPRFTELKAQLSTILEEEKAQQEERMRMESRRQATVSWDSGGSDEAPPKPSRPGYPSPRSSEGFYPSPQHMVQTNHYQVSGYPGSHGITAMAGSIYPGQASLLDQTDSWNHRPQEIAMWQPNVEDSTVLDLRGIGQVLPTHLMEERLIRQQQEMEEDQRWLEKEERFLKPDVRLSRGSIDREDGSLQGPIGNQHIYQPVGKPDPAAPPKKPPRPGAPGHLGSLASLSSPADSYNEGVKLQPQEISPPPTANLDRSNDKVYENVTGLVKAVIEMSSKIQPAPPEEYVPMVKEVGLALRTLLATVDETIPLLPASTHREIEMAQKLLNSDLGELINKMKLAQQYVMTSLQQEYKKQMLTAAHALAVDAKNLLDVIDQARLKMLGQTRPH
Sequence of IGF-1R (P08069 31-1367): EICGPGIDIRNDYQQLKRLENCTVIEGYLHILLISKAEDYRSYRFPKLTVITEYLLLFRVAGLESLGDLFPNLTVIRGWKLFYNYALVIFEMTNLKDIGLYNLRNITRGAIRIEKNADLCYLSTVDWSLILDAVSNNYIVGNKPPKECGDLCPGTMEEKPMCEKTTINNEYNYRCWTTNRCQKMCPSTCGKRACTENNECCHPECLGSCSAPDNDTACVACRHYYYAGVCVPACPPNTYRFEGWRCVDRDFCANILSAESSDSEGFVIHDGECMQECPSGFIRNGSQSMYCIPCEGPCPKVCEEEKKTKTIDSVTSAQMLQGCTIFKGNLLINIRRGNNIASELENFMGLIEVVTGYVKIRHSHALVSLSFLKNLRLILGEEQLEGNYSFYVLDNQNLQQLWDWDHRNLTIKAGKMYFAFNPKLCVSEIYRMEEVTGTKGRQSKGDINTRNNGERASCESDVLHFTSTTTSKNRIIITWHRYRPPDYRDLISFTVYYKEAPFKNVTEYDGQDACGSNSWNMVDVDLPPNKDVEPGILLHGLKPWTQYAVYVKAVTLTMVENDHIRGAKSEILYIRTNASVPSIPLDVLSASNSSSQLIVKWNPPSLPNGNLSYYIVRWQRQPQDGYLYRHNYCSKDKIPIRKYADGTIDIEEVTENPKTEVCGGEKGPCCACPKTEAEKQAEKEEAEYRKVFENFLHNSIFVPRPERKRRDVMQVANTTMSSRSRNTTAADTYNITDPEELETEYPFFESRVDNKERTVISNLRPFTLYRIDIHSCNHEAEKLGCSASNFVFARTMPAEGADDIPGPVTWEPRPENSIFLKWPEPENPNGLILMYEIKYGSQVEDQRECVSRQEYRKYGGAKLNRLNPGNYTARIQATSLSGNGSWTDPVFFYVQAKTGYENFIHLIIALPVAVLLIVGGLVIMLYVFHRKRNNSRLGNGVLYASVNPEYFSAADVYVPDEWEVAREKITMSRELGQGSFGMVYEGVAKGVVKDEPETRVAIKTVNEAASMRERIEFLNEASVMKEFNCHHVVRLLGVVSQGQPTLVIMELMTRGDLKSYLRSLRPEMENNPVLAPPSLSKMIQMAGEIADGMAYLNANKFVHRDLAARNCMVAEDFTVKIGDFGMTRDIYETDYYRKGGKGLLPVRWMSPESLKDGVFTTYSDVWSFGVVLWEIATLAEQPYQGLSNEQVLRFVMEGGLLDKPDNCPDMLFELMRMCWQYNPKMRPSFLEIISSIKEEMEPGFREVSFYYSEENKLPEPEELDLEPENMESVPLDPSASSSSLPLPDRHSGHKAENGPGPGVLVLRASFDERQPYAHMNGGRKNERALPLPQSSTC

As to `CSc1ncnc2c1ccn2C1O[C@H](COP(=O)(O)O)[C@@H](O)[C@H]1O` (stereo partly drawn) [INT2-31, 4-(Methylthio)-7-(5-O-phosphono-D-ribofuranosyl)-{7H-Pyrrolo[2,3-d]pyrimidine}], the “kinase activity of FAK” value in assay [1] is on record as “did not inhibit”. Besides, the “kinase activity of IGF-1R” value in assay [2] was “did not inhibit”. The “dose necessary to significantly decrease p-Akt” value in assay [3] (A375 cells) was 1 to 5 µM. Further, the “time course of Akt phosphorylation” value in assay [3] (C8161, 5 μM, 24, 48 and 72 hours) is “some dephosphorylation after 24 hours of treatment with a sustained effect at 72 hours”. The “dose necessary to significantly decrease p-Akt” value in assay [3] (SK-MEL-28 cells) was 5 to 10 µM. In assay [3] (all cell lines, higher doses), the p-ERK entry was “slight decrease”. Besides, in assay [3] (three melanoma cell lines), the “constitutive and IGF-1 induced signaling to AKT” value is listed as “consistent inhibition”; the “constitutive or IGF-1 induced phosphorylation of IGF-1R” value is recorded as “no significant effect”; the “constitutive phosphorylation of FAK” value is reported as “no significant effect”.

The values above are taken from patent US20120107323A1, “KINASE PROTEIN BINDING INHIBITORS” (University of Florida, priority 2009, published 2012).
